Measurements from publication PMC8647499, “Preclinical evaluation of strasseriolides A–D, potent antiplasmodial macrolides isolated from Strasseria geniculata CF-247,251” (Malaria Journal, 2021).
“And” between values parts separate entries of the source, which are not always exact repeats. Equal entries are not always repeated.

Columns and labels:
[1] = Quantification of compounds in mice plasma by LC-MS-MS and PK parameters after i.v. injection; format: in vivo; conditions: mouse, in vivo, iv, 25 mg/kg
Experimental: Three Balb/C mice (6–8 weeks old) were intravenously injected with 25 mg/kg of strasseriolide D dissolved in 200 µL of vehicle (0.5%HPMC, 0.5% Tween 80 and 0.5% Benzyl alcohol in water). Blood samples were collected by pricking the […] on the leg of each mouse at time points 1.5 (T 1.5 h), 5 (T 5 h) and 24 h (T 24 h). From the harvested blood, 50 µL plasma were prepared for all the samples and stored at -80 °C until needed. A previously developed LC–MS–MS method (see supporting information) was used to determine the plasma concentration of strasseriolide D as described below.
Ten millimolar (10 mM) DMSO stocks of strasseriolide D (the test compound) and strasseriolide A (used as internal standard,) were prepared. From the strasseriolide D stock, a 59.7 µM (27,000 ppb) working concentration was made in DMSO and an aliquot of this was serially diluted (½) in reconstitution solution (1:1 of acetonitrile: H2O with 0.1% formic acid) to create a six-point calibration curve in triplicate. Three different quality control (QC) concentrations of strasseriolide D at 59.7, 0.74, and 0.25 µM (i.e. 27,000 ppb, 333 ppb and 111 ppb) were also prepared in duplicate. From the strasseriolide A (internal standard) stock, a 6.2 µM (2700 ppb) working concentration was prepared in DMSO.
Blank mouse plasma (prepared from non-injected mouse) was retrieved from the freezer (− 80 °C) and kept on ice to thaw. The sample was vortexed adequately and 15 µL aliquots transferred into 0.7 mL Eppendorf tubes after which 35 µL of Milli-Q water were added and vortexed. Triplicate sets of the diluted plasma were then respectively spiked with 2 uL of each concentration of the calibration curves of strasseriolide D. Another triplicate set of the diluted plasma was spiked with 2 µL of each concentration of the standard QC solutions. All the above samples were also spiked with 2 µL of strasseriolide A (the internal standard)). To serve as blank samples, a fresh triplicate set of diluted plasma were spiked with 4 µL of DMSO. Non-matrix samples were also prepared by spiking 100 µL aliquots of reconstitution solution with 2 µL of the standard QC solutions and 2 µL of internal standard.
Fifteen microlitres (15 µL) plasma from the various time points of the strasseriolide D-injected mice, were respectively transferred into 0.7 mL Eppendorf tubes. To each sample, 37 µL of Milli-Q water were added, vortexed and spiked with 2 µL of strasseriolide A (internal standard). Two hundred microlitres (200 µL) of ice-cold acetonitrile were added to all of the matrix (plasma-containing) samples and centrifuged at 13,300 rpm for 15 min at 4 °C. Subsequently, 180 µL aliquots were carefully transferred (without disturbing the protein precipitate) from each tube into clean HPLC vials and evaporated to dryness in an EZ2 Genevac at room temperature. The dried samples were then reconstituted in 40 µL of reconstitution solution by vortexing. The samples were placed in an auto-sampler drawer for LC–MS–MS analysis and quantification of strasseriolide D (the test compound) in mice plasma.
Similar sample preparation and LC–MS–MS analysis were respectively performed for mice intravenously injected with strasseriolides A and C as test compounds and mice blood samples collected at 30 min (T 30 M), 2 h (T 2 h), 6 h (T 6 h) and 24 h (T 24 h). […] For strasseriolides A, B and C as test compounds; strasseriolides C, D and B were respectively used as internal standards. After LC–MS–MS analysis, the plasma concentration of compound vs. time data was determined for each strasseriolide.
116 Table S2. QC table used to calculate the precision and accuracy of the method.
Compound Expected No. Experimental STD % %
conc. in values mean conc. deviation CV Accuracy
118 (5) The mean recovery rate for the test compound (strasseriolide B) – this was calculated
119 to be 29 % by comparing the plasma QC peak area ratios at the established retention time […]

[2] = Solubility in the formulation vehicle; format: physicochemical; conditions: at 25 mg/Kg dosage, about 5.53 mM in 200 µL vehicle; preliminary unpublished data
[3] = Balb/C, Calc. Conc. in plasma, individual mice
[4] = Balb/C, T1/2 (apparent terminal elimination half-life)

SMILES | AUC 0-t/0-inf_obs ([1]; Balb/C) | AUC(0-inf) ([1]; Balb/C) | C0 ([1]; Balb/C) | Clast_obs/Cmax ([1]; Balb/C) | Cmax ([1]; Balb/C) | MRT ([1]; Balb/C) [h] | MRT inf ([1]; Balb/C) [h] | Tmax ([1]; Balb/C) [h] | Vss_obs ([1]; Balb/C) | Vz_obs (plasma distribution volume) ([1]; Balb/C) [L/kg] | k el ([1]; Balb/C) [s⁻¹] | AUC(0-t) ([1]; Balb/C, AUC 0-t) | AUC(0-t) ([1]; Balb/C, AUC0−t) [µM·h] | concentration at 24 h ([1]; Balb/C, Ave. Conc. in plasma) [nM] | concentration at 24 h [1, 3] | concentration at 24 h ([1]; Balb/C, Plasma Conc. @T24 h) [nM] | half-life [1, 4] [min] | half-life ([1]; Balb/C, t1/2) [min] | Cl_obs [1] | other results
C/C1=C\[C@H](C)[C@@H](O)C[C@@H](O)/C(C)=C/[C@H](C)C[C@@H](C)CC[C@@H]([C@@H](C)C(=O)O)OC(=O)[C@@H](C)C1 [Strasseriolide D, strasseriolide D] | 0.8996 | 5050 ng·h/mL and 11.2 µM·h | 929 ng/mL and 2.06 µM | 0.08582 | 564 ng/mL and 1.25 µM | 8 | 8.02 | 1.5 | 0.03969 (mg/kg)/(ng/ml) | 51.9 | 2.65e-05 | 10.1 µM·h and 4550 ng·h/mL | 10.1 | 107 | 49.2 ng/mL and 109 nM | 107 ± 5 | 438 | 436 | 0.004946 (mg/kg)/(ng/ml)/h | concentration at 1.5 h ([1]; Balb/C, Ave. Conc. in plasma): 1250 nM; concentration at 5 h ([1]; Balb/C, Ave. Conc. in plasma): 389 nM; concentration at 5 h [1, 3]: 168 ng/mL and 431 nM; soluble in the formulation vehicle [2]: 35%
C/C1=C\[C@H](C)C(=O)C[C@@H](O)/C(C)=C/[C@H](C)C[C@@H](C)CC[C@@H]([C@@H](C)C(=O)O)OC(=O)[C@@H](C)C1 [Strasseriolide C, strasseriolide C] | 0.9595 | 359 ng·h/mL and 0.798 µM·h | 203 ng/mL and 452 nM | 0.01432 | 111 ng/mL and 246 nM | 4.7 | 4.71 | 0.5 | 0.3281 (mg/kg)/(ng/ml) | 636.8 | 3.04e-05 | 345 ng·h/mL and 0.766 µM·h | 0.766 | 3.54 | 2.04 ng/mL and 4.53 nM | 3.5 ± 0.9 | 378 | 381 | 0.06959 (mg/kg)/(ng/ml)/h | concentration at 0.5 h ([1]; Balb/C, Ave. Conc. in plasma): 246 nM; concentration at 2 h ([1]; Balb/C, Ave. Conc. in plasma): 40 nM; concentration at 6 h ([1]; Balb/C, Ave. Conc. in plasma): 24 nM; concentration at 0.5 h [1, 3]: 122 ng/mL and 271 nM; concentration at 2 h [1, 3]: 20.7 ng/mL and 46 nM; concentration at 6 h [1, 3]: 11.4 ng/mL and 23.1 nM
